Measurements published in paper PMC11402846, “Does a postmortem redistribution affect the concentrations of the 7 azaindole-derived synthetic cannabinoid 5F-MDMB-P7AICA in tissues and body fluids following pulmonary administration to pigs?” (Archives of Toxicology, 2024).

Columns and labels:
[1] = death case, cited from earlier work; for central blood (CB) levels versus peripheral blood (PB) levels: PMI: 20 h, ref Zaitsu et al. ([2015])
[2] = Perimortem and postmortem concentrations in tissues and body fluids after pulmonary administration of 5F-MDMB-P7AICA to pigs (LC-MS/MS); format: in vivo; conditions: pig
Protocol: The experiments were conducted in compliance with the German legislation on protection of animals and the National Institutes of Health Guide for the Care and Use of Laboratory Animals (permission number 32/2018). Six domestic male pigs (Swabian Hall strain; body weight [BW] 40–51.2 kg, 3 months old) were kept with free access to water and standard daily food (OlymPig fattening feed, Raiffeisen, Münster, Germany). One night prior to the experiments, the animals were kept fasting. […] The room temperature was 22 ± 1 °C with a humidity of 55 ± 10%.
As previously described (Doerr et al. [2020]; Schaefer et al. [2019], [2020a]), an ethanolic solution of 5 mg/mL 5F-MDMB-P7AICA was prepared. An aliquot of 1.600–2.048 mL was filled up with ethanol to a total volume of 2 mL, if needed to achieve a concentration of 200 µg per kg BW. The SC was administered inhalatively over 6.5–8 min, using a M-Neb flow + ventilation ultrasonic nebulizer MN-300/7 (Nebutec, Elsenfeld, Germany) in the inspiration-triggered mode.
Animal euthanasia was conducted eight hours after the drug administration using T 61 (embutramide, 0.12 mL/kg BW, Intervet Deutschland GmbH, Unterschleißheim, Germany). Afterwards, the abdominal cavity was opened. Samples of the following organs, tissues and body fluids were collected (PMI 0) and stored at − 20 °C until further analysis: Brain (cerebrum), lungs and liver with no differentiation between the lobes, kidneys, muscle tissue (from the hindleg), adipose tissue (subcutaneous (sc), dorsal, perirenal), bile fluid, duodenum content, urine (only at PMI 0) and PB (V. jugularis) as well as CB.
The abdominal cavity was sutured leaving the organs in situ and the animal bodies were kept at room temperature in a supine position. Analogously, samples were taken again after 24, 48 and 72 h (PMI 1–3), respectively. Yet, PM PB specimens were obtained by sampling the coagulated blood from the V. femoralis or V. brachialis. For this purpose, the whole vessel was sampled and the blood was drawn therefrom using a pipette with a wide lumen.
Specimens were prepared according to a previous published method (Schaefer et al. [2017], [2019], [2020a]) with changes regarding the applied buffers and the amount of acetonitrile. An amount of 2 g of solid tissue (brain, lung, liver, kidney and muscle tissue) was homogenized (1:5 w/w with water), respectively and 1 g of body fluids (bile fluid, duodenum content, and urine) was diluted (1:10 w/w for bile and duodenum content, 1:5 w/w for urine, respectively, with water). The samples were stored at − 20 °C.
To determine the standard addition calibration curves, four 0.5 g aliquots were added to 20 µL of an ethanolic stable-isotope-labeled internal standard solution (SIL-IS, 1 ng/20 µL AB-FUBINACA-d4) and 25 µL of ethanol or an ethanolic solution of the analytes.
Subsequently, the solution was mixed with 500 µL of acetate buffer and 50 µL of β-glucuronidase/arylsulfatase and incubated for 2 h at 60 °C to induce enzymatic hydrolysis of the glucuronidated DBA (phase-II metabolite).
For the following protein precipitation, the samples were mixed with 500 µL of acetonitrile and centrifuged at 3500g for 8 min. The supernatants were transferred to 1 mL phosphate buffer (pH 9) vortexed and centrifuged at 3500g for 8 min again.
Solid phase extraction (SPE) was carried out using Strata C18 end capped cartridges (Phenomenex, Aschaffenburg, Germany), previously conditioned with 2 × 3 mL methanol and 3 mL phosphate buffer. After loading the samples, the columns were washed with 3 mL phosphate buffer, 3 mL acetic acid (0.25 M) and 3 mL deionized water, respectively. 60 μL acetone was added and columns were dried for 5 min using negative pressure (about 33 kPa). Thereafter, the analytes were eluted with a mixture of 1.5 mL methanol-acetone (1:1, v/v) and the eluate was evaporated under a gentle stream of nitrogen at 60 °C. […]

[3] = design: method as in Walle et al. [2023]; conditions: authentic fatal case, comparable survival time after drug intake; ref Walle et al. [2023]; cited from earlier work
[4] = 200 µg/kg BW inhalative, PMI 0 (8 h after administration)
[5] = 200 µg/kg BW inhalative, PMI 1 (24 h after euthanasia, room temperature)
[6] = 200 µg/kg BW inhalative, PMI 2 (48 h after euthanasia, room temperature)
[7] = 200 µg/kg BW inhalative, PMI 3 (72 h after euthanasia, room temperature)

For `CN1CCCCC1Cn1cc(C(=O)c2cccc3ccccc23)c2ccccc21` (stereo not drawn) [AM-1220], the “central blood (CB) levels versus peripheral blood (PB) levels” value [1] is given as “significantly exceeded”.

For `N#CCCCCn1cc(C(=O)c2cccc3ccccc23)c2ccccc21` [AM-2232], the “central blood (CB) levels versus peripheral blood (PB) levels” value [1] is given as “significantly exceeded”.

In the case of `CC(C)(C)C(NC(=O)c1cn(CCCCCF)c2ncccc12)C(=O)O` (stereo not drawn) [DBA, 5F-MDMB-P7AICA-dimethylbutanoic acid], the “Mean concentration ± SD in CB (central blood)” value (from here on “Mean concentration ± SD in CB”) [2, 4] is reported as 0.22 ± 0.11 n = 6 ng/mL, the “Mean concentration ± SD in bile fluid” value [2, 4] is reported as 57 ± 100 n = 6 ng/g and the “Mean concentration ± SD in brain” value [2, 4] is reported as “tested negative and neg”. For the same compound, the “Mean concentration ± SD in dorsal fat” value [2, 4] was 0.60 ± 0.35 n = 6 ng/g, the “Mean concentration ± SD in duodenum content” value [2, 4] was 82 ± 72 n = 6 ng/g and the “Mean concentration ± SD in kidney” value [2, 4] was 5.4 ± 4.7 n = 6 ng/g. The “Mean concentration ± SD in liver” value [2, 4] was 0.87 ± 0.37 n = 6 ng/g, the “Mean concentration ± SD in lung” value [2, 4] was 0.20 ± 0.071 n = 4 ng/g and the “Mean concentration ± SD in muscle” value [2, 4] was 0.14 ± 0.011 n = 3 ng/g. The “Mean concentration ± SD in perirenal fat” value [2, 4] was 8.8 ± 5.6 n = 6 ng/g, the “Mean concentration ± SD in s.c. fat” value [2, 4] was 1.1 ± 1.1 n = 6 ng/g and the “Mean concentration ± SD in urine” value [2, 4] was 78 ± 45 n = 6 ng/g. The “Mean concentration ± SD in CB” value [2, 5] was 0.32 ± 0.40 n = 5 ng/mL, the “Mean concentration ± SD in PB (peripheral blood)” value (“Mean concentration ± SD in PB” for short) [2, 5] was 0.47 ± 0.21 n = 6 ng/mL and the “Mean concentration ± SD in bile fluid” value [2, 5] was 37 ± 71 n = 6 ng/g. The “Mean concentration ± SD in brain” value [2, 5] was 0.13 ± 0.056 n = 6 ng/g, the “Mean concentration ± SD in dorsal fat” value [2, 5] was 0.28 ± 0.19 n = 6 ng/g and the “Mean concentration ± SD in duodenum content” value [2, 5] was 13 ± 15 n = 6 ng/g. The “Mean concentration ± SD in kidney” value [2, 5] was 5.1 ± 5.0 n = 6 ng/g, the “Mean concentration ± SD in liver” value [2, 5] was 1.2 ± 1.4 n = 6 ng/g and the “Mean concentration ± SD in lung” value [2, 5] was 0.33 ± 0.21 n = 5 ng/g. For the same compound, the “Mean concentration ± SD in muscle” value [2, 5] was 0.10 ± 0.027 n = 6 ng/g, the “Mean concentration ± SD in perirenal fat” value [2, 5] was 1.0 ± 1.2 n = 5 ng/g and the “Mean concentration ± SD in s.c. fat” value [2, 5] was 0.45 ± 0.46 n = 5 ng/g. For the same compound, the “Mean concentration ± SD in CB” value [2, 6] was 0.21 ± 0.17 n = 5 ng/mL, the “Mean concentration ± SD in PB” value [2, 6] was 0.48 ± 0.16 n = 6 ng/mL and the “Mean concentration ± SD in brain” value [2, 6] was 0.18 ± 0.065 n = 6 ng/g. The “Mean concentration ± SD in dorsal fat” value [2, 6] was 0.16 ± 0.064 n = 4 ng/g, the “Mean concentration ± SD in kidney” value [2, 6] was 7.0 ± 5.9 n = 6 ng/g and the “Mean concentration ± SD in liver” value [2, 6] was 1.8 ± 1.2 n = 6 ng/g. For the same compound, the “Mean concentration ± SD in lung” value [2, 6] was 0.92 ± 0.69 n = 6 ng/g, the “Mean concentration ± SD in muscle” value [2, 6] was 0.11 ± 0.047 n = 5 ng/g and the “Mean concentration ± SD in perirenal fat” value [2, 6] was 2.0 ± 1.7 n = 6 ng/g. The “Mean concentration ± SD in s.c. fat” value [2, 6] was 0.18 ± 0.086 n = 5 ng/g, the “Mean concentration ± SD in CB” value [2, 7] was 0.20 ± 0.10 n = 5 ng/mL and the “Mean concentration ± SD in PB” value [2, 7] was 0.28 ± 0.093 n = 6 ng/mL. For the same compound, the “Mean concentration ± SD in brain” value [2, 7] was 0.16 ± 0.043 n = 6 ng/g, the “Mean concentration ± SD in dorsal fat” value [2, 7] was 0.11 ± 0.033 n = 5 ng/g and the “Mean concentration ± SD in duodenum content” value [2, 7] was 9.0 ± 17 n = 6 ng/g. The “Mean concentration ± SD in kidney” value [2, 7] was 6.5 ± 5.9 n = 6 ng/g, the “Mean concentration ± SD in liver” value [2, 7] was 2.8 ± 1.9 n = 6 ng/g and the “Mean concentration ± SD in lung” value [2, 7] was 0.89 ± 0.57 n = 5 ng/g. For the same compound, the “Mean concentration ± SD in muscle” value [2, 7] was 0.17 ± 0.089 n = 6 ng/g, the “Mean concentration ± SD in perirenal fat” value [2, 7] was 4.6 ± 3.7 n = 6 ng/g and the “Mean concentration ± SD in s.c. fat” value [2, 7] was 0.27 ± 0.17 n = 5 ng/g. For the same compound, the “Concentration in bile fluid” value ([2]; 200 µg/kg BW inhalative, PMI 3 (72 h after euthanasia, room temperature), only sampled from 2 pigs) was 7.5–120 n = 2^2 ng/g, the “Mean concentration ± SD in PB” value ([2]; 5F-MDMB-P7AICA 200 µg/kg BW inhalative, PMI 0 (8 h after administration)) was 0.18 ± 0.11 n = 6 ng/mL and the “Postmortem redistribution (PMR)” value ([2]; 3 days storage at room temperature) was “no relevant PMR was observed”. For the same compound, the “Amount in the remaining tissues” value ([2]; PMI 0, tissues other than urine, bile fluid, duodenum content, kidney, perirenal fat) was “less than 1 ng/g”, the “Concentration change in bile and duodenum” value ([2]; PMI 2 compared to PMI 0, p < 0.05) was “decrease was statistically significant” and the “Concentration change in dorsal and subcutaneous fat specimens” value ([2]; over the PMI) was “significant lower concentrations over time”. For the same compound, the “CB concentration in fatal case” value [3] was 46 ng/mL and the “PB concentration in fatal case” value [3] was 5.7 ng/mL.

For `Cc1ccc(C(=O)c2cn(CCCCCF)c3ccccc23)c2ccccc12` [MAM-2201], the “central blood (CB) levels versus peripheral blood (PB) levels” value [1] is given as “significantly exceeded”.

For `COC(=O)[C@@H](NC(=O)c1cn(CC2CCCCC2)c2ccccc12)C(C)(C)C` [MDMB-CHMICA], the “quotient of central/peripheral blood (C/P ratio)” value ([1]; 12 h after death, ref Gaunitz et al. [2018]) is given as ~1.
